Results on 23 compounds are retold here after ChEMBL document CHEMBL3992548, “Design, synthesis and biological evaluation of 2,4-disubstituted oxazole derivatives as potential PDE4 inhibitors” (Bioorg Med Chem, 2017).

Structures are written as SMILES.

Test [1] deals with 3',5'-cyclic-AMP phosphodiesterase 4B (Homo sapiens, UniProt Q07343). The experiment in a line: Inhibition of human U937 cells-derived PDE4B using [3H]cAMP as substrate after 30 mins.
In another test the test system is PBMC. Briefly: Anti-inflammatory activity in human PBMC assessed as inhibition of LPS-induced TNFalpha secretion preincubated for 30 mins followed by LPS stimulation for 18 hrs by TR-FRET assay. The test is classed as functional, cell-based. In general terms: In TR-FRET formats the signal depends on donor and acceptor labels being close together.
Test [2] addresses 3',5'-cyclic-AMP phosphodiesterase 4D (Homo sapiens, UniProt Q08499). The experiment in a line: Inhibition of human U937 cells-derived PDE4D using [3H]cAMP as substrate after 30 mins.
For the next test, the system named is Mus musculus. Briefly: Anti-inflammatory activity in LPS-induced Swiss albino mouse sepsis model assessed as inhibition of TNF-alpha release in serum at 10 mg/kg, po administered 30 mins prior to LPS challenge measured after 90 mins by ELISA relative to control. The test is classed as functional. In general terms: In an ELISA, binding on a coated surface is turned into a signal by an enzyme label.

Another test deals with Rattus norvegicus. The experiment in a line: Anti-inflammatory activity in Sprague-Dawley rat model of LPS-induced asthma/COPD assessed as inhibition of neutrophilia in lungs at 10 mg/kg, po administered 30 mins prior to LPS challenge for 40 mins measured after 6 hrs relative to control. The test is classed as functional.

3',5'-cyclic-AMP phosphodiesterase 4B, sequence (Q07343 whole entry): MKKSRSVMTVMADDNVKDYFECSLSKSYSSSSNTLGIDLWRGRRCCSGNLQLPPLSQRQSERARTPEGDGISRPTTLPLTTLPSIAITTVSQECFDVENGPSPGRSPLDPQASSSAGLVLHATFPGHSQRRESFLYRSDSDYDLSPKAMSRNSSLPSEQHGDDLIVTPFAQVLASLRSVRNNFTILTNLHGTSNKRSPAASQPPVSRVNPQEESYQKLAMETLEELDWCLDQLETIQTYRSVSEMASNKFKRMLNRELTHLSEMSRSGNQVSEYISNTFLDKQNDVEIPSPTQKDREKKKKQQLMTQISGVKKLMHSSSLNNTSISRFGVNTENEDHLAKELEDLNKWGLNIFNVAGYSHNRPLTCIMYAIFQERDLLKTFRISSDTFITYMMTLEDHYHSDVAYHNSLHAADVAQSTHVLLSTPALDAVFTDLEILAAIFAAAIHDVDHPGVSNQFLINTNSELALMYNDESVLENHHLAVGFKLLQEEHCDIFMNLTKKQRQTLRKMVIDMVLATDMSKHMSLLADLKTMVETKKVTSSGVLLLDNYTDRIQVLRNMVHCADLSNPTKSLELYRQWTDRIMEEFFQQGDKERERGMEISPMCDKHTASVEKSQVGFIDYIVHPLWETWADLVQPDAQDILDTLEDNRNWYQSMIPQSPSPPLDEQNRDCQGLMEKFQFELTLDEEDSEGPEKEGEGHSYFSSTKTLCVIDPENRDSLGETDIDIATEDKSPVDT
3',5'-cyclic-AMP phosphodiesterase 4D, sequence (Q08499 whole entry): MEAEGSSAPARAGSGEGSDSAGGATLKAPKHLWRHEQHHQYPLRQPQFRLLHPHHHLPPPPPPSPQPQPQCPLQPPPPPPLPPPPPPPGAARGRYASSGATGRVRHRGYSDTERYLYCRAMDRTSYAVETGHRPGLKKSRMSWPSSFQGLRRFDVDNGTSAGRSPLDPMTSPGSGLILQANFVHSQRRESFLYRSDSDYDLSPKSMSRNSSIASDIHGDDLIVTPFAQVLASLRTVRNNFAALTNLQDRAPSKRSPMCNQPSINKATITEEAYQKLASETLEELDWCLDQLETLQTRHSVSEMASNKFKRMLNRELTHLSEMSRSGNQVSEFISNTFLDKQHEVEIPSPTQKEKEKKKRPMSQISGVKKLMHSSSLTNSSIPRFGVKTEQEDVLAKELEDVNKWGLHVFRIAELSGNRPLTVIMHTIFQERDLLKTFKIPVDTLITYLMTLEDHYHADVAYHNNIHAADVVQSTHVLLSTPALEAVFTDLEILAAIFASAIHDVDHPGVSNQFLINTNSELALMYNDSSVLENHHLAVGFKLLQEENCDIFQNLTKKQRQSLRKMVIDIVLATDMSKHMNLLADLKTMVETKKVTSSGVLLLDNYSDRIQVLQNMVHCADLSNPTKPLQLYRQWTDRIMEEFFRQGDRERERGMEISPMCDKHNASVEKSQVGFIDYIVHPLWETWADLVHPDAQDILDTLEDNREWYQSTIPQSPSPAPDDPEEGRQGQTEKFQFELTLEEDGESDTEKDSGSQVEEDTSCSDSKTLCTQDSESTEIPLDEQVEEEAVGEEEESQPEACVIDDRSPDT

Regarding `Cc1cc(C)n(C(=O)c2coc(-c3ccc(Br)cc3)n2)n1`, the IC50 in test [1] was determined as 54.8 µM; in the test with PBMC it was 168 µM.
On the same counts, the results for `O=C(c1coc(-c2ccccc2O)n1)n1cccn1` are 85.6 µM and 205 µM.
Taken in the same sequence, the figures for `Cc1ccc(-c2nc(C(=O)n3nc(C)cc3C)co2)cc1` were 6.7 µM and 36.7 µM.
In the case of `O=C(c1coc(-c2cccc(F)c2)n1)n1cccn1`, the half-inhibitory concentration (IC50) was determined as 45.1 µM in test [1] and 99.6 µM in the test on PBMC.
Take `O=C(c1coc(-c2ccc(O)cc2)n1)n1cccn1`: the IC50 stood at 18.4 µM in test [1] and 75.5 µM in the test with PBMC.
On the same counts, the results for `Cc1cc(C)n(C(=O)c2coc(-c3cccc(O)c3)n2)n1` are 28.9 µM and 78.4 µM.
Taken in the same sequence, the figures for `O=C(c1coc(-c2ccccc2)n1)n1cccn1` were 88.7 µM and 199 µM.
With `Cc1cc(C)n(C(=O)c2coc(-c3ccccc3)n2)n1`, the concentration for half-maximal inhibition (IC50) in test [1] turned out to be 75.8 µM; with PBMC, 199 µM.
In the case of `O=C(c1coc(-c2ccc(F)cc2)n1)n1cccn1`, the 50% inhibitory concentration (IC50) is 9.8 µM in test [1] and 54.8 µM in the test on PBMC.
On the same counts, the results for `Cc1cc(C)n(C(=O)c2coc(-c3cccc(F)c3)n2)n1` are 40.8 µM and 83.4 µM.
On the same counts, the results for `Cc1cc(C)n(C(=O)c2coc(-c3ccc(F)cc3)n2)n1` are 8.4 µM and 29.7 µM.
On to `COc1ccc(-c2nc(C(=O)n3cccn3)co2)cc1`, for which the half-maximal inhibitory concentration (IC50) in test [1] turned out to be 3.2 µM; in test [2] it was 8.4 µM; in the test with PBMC, 20.8 µM. The results for the inhibition in vivo at 10 mg/kg with Mus musculus and in the test with Rattus norvegicus were 26.1% and 22.4%, respectively.
On the same counts, the results for `COc1ccc(-c2nc(C(=O)n3nc(C)cc3C)co2)cc1` are 1.6 µM, 10.6 µM, 10.3 µM, 42.6% and 39.1%.
As to `Cc1cc(C)n(C(=O)c2coc(-c3ccccc3O)n2)n1`, the half-inhibitory concentration (IC50) came out at 54.8 µM in test [1] and 139 µM in the test on PBMC.
Taken in the same sequence, the figures for `O=C(c1coc(-c2cccc(O)c2)n1)n1cccn1` were 39.7 µM and 88.4 µM.
Taken in the same sequence, the figures for `Cc1cc(C)n(C(=O)c2coc(-c3ccc(O)cc3)n2)n1` were 15.8 µM and 66.4 µM.
On the same counts, the results for `O=C(c1coc(-c2ccc(Cl)cc2)n1)n1cccn1` are 5.3 µM and 40.1 µM.
Turning to `COc1cccc(-c2nc(C(=O)n3cccn3)co2)c1`, the half-maximal inhibitory concentration (IC50) is 5.9 µM in test [1] and 45.8 µM in the test on PBMC.
Taken in the same sequence, the figures for `O=C(c1coc(-c2ccc(Br)cc2)n1)n1cccn1` were 58.7 µM and 187 µM.
On the same counts, the results for `COc1cccc(-c2nc(C(=O)n3nc(C)cc3C)co2)c1` are 4.5 µM and 18.7 µM.
Taken in the same sequence, the figures for `Cc1ccc(-c2nc(C(=O)n3cccn3)co2)cc1` were 17.5 µM and 72.4 µM.
Turning to `Cc1cc(C)n(C(=O)c2coc(-c3ccc(Cl)cc3)n2)n1`, the IC50 in test [1] worked out at 4.1 µM; in the test on PBMC it was 27.6 µM.
`COc1ccc(C2CNC(=O)C2)cc1OC1CCCC1` (stereo not drawn) [ROLIPRAM]: in the test on PBMC, the 50% inhibitory concentration (IC50) came to 18.6 µM. Further, the figures for the inhibition in vivo at 10 mg/kg with Mus musculus and with Rattus norvegicus were 40.8% and 30.9%, respectively.

The IC50 is the concentration needed to halve the response being measured. The inhibition in vivo is the drop in the measured response relative to a control, in per cent.
